Measured values published in patent US7569605B2, “Methods of treating central nervous system disorders with a low dose combination of escitalopram and bupropion” (Forest Laboratories Holdings Limited, priority 2005, dated 2009).

Columns and labels:
[1] = tested on: patients with major depressive disorder (MDD); assay: double-blind fixed dose comparison in major depressive disorder: safety and tolerability; assay type: in vivo, human; conditions: for Early Discontinuation: AEs / Early Discontinuation: All Reasons / Early Discontinuation: Insufficient Response / Incidence of TEAEs: Pts with at least 1 TEAE / Selected TEAEs: anorexia / Selected TEAEs: completed suicide* / Selected TEAEs: constipation / Selected TEAEs: decreased appetite / Selected TEAEs: diarrhea / Selected TEAEs: dizziness / Selected TEAEs: dry mouth / Selected TEAEs: early morn awakening / Selected TEAEs: ejaculation delayed / Selected TEAEs: erectile dysfunction / Selected TEAEs: hypersomnia / Selected TEAEs: increased appetite / Selected TEAEs: initial insomnia / Selected TEAEs: insomnia / Selected TEAEs: intentional self-injury / Selected TEAEs: lethargy / Selected TEAEs: libido decreased / Selected TEAEs: libido increased / Selected TEAEs: middle insomnia / Selected TEAEs: nausea / Selected TEAEs: orgasm abnormal / Selected TEAEs: sedation / Selected TEAEs: sleep disorder / Selected TEAEs: somnolence / Selected TEAEs: suicidal ideation / Selected TEAEs: vomiting / Selected TEAEs: weight decreased / Selected TEAEs: weight increased: number of patients (%), 8 weeks double-blind; for patients discontinued treatment early / patients exhibited at least one Treatment Emergent Adverse Event (TEAE): percent of patients, as given in the text
Experimental: The present study evaluates the efficacy, safety, and tolerability of escitalopram/bupropion combination treatment relative to its component monotherapies, and to placebo in patients with major depressive disorder (MDD).
(§1) The study consists of a one-week single-blind placebo lead-in period followed by an 8 week double-blind treatment period. Approximately 135 patients are randomized to each of four treatment groups (placebo, escitalopram oxalate 4 mg, bupropion hydrochloride 150 mg, or escitalopram oxalate 4 mg/bupropion hydrochloride 150 mg), for a total of […].
(§2) A randomized, double-blind, fixed-dose, multicenter, parallel-group study is conducted in outpatients with MDD. Patients who meet eligibility criteria at Screening (Visit 1) enter a one-week, single-blind, lead-in period of placebo treatment. Patients who complete the lead-in period and continue to meet all entry criteria at Baseline (Visit 2) are randomly assigned to 8 weeks of double-blind treatment with either placebo, escitalopram 4 mg, bupropion XL 150 mg, or escitalopram 4 mg/bupropion XL 150 mg combination. Assignment to a treatment group is according to a computer-generated randomization schedule.
Safety assessments are made of the patients by a physician at every visit and the evaluation documented. At each visit beginning with Visit 2, patients are queried regarding any adverse events (AEs) since the last visit. Study site personnel record all pertinent information in the electronic Case Report Forms (eCRF). Patients are asked to volunteer information concerning AEs with non-leading question such as “How do you feel?” AEs are collected at Visit 2 and all subsequent visits including early termination.
Dosing: For the single-blind lead-in period, patients are supplied with placebo capsules. For the double-blind period, identical appearing capsules are supplied which contain placebo, escitalopram 4 mg, or bupropion extended-release 150 mg. Medication are supplied in blister cards, each containing 20 capsules arranged in two rows of 10 capsules.
All study medication is administered as a single daily dose throughout the study, preferably at the same time each evening starting on the day the medication is dispensed to the patient. Dosing is subsequently be switched to morning, if preferred. At each visit, patients are instructed to take 2 capsules daily, one from Row 1 and one from Row 2. Patients are instructed to return all unused medication at each study visit. Patients who meet eligibility criteria at Visit 1 are dispensed one blister card containing 20 placebo capsules. Patients are instructed to take two capsules daily as a single dose beginning on the day study medication is dispensed. Patients who meet all eligibility criteria at Visit 2 are assigned a randomization number and dispensed the corresponding blister card for Week 1 of treatment as shown in the Figure below:
Patients are assigned the lowest randomization number available at the site. Patients are instructed to take two capsules daily as a single dose beginning on the day study medication is dispensed. In accordance with their assigned treatment group, patients receive placebo, 4 mg escitalopram, 150 mg bupropion, or 4 mg escitalopram and 150 mg bupropion per day.
At Visit 3, patients are dispensed one blister card for Week 2 of treatment. At Visits 4, 5, and 6, patients are dispensed two blister cards for Weeks 3-4, 5-6, and 7-8 of treatment, respectively. Patients are instructed to continue taking two capsules daily as a single dose. In accordance with their assigned treatment group, patients receive placebo, 4 mg escitalopram, 150 bupropion, or 4 mg escitalopram and 150 mg bupropion per day.

[2] = tested on: patients with major depressive disorder (MDD); assay: Arizona Sexual Experiences Scale (ASEX) in the fixed dose comparison study; assay type: in vivo, human
Experimental: as §1, §2
The Arizona Sexual Experiences Scale (ASEX) is completed at Visits 2 and 7, or early termination. Different versions are used for males and females. This 5 item patient-rated scale assesses sexual experiences with respect to libido, psychological and physiological arousal, ability to attain orgasm, and satisfaction with orgasm. Each item is scored on a 6 point scale with higher numbers indicating greater sexual dysfunction.

[3] = tested on: rat dorsal raphe nucleus (DRN) 5-HT neurons; assay: effects on rat dorsal raphe nucleus serotonin neurons (extracellular unitary recordings of firing); assay type: in vivo; conditions: anesthetized rats; two days treatment; escitalopram 10 mg/kg s.c. minipump, bupropion 30 mg/kg s.c. once daily
Experimental: Glass electrodes were lowered into the DRN 5-HT neurons were identified by their firing pattern and spike duration. […] NS). […] The experiments were carried out in male Sprague Dawley rats (Charles River, St. Constant, Québec, Canada) weighing between 300 to 325 g being kept under standard laboratory conditions (12:12 light-dark cycle with access to food and water ad libitum). Rats were anaesthetized with chloral hydrate (400 mg/kg, i.p.) and mounted in a stereotaxic apparatus (David Kopf Instruments, Tujunga, Calif., USA). […] Body temperature was maintained at 37° C. throughout the experiments utilizing a thermistor-controlled heating pad (Seabrook Medical Instruments, Inc., […], Canada). Prior to electrophysiological recording, rats were inserted with a catheter in a lateral tail vein for systemic injection of drugs. Rats received escitalopram oxalate administered through an osmotic minipump implanted subcutaneously, under halothane anaesthesia, which delivered 10 mg/kg/day. The recordings were carried out with the minipump in the animals. Bupropion hydrochloride was injected subcutaneously once a day at a dose of 30 mg/kg for 2 days with the last dose administered immediately prior to the electrophysiological experiments. […] Their impedance range was between 2 and 4 MΩ. […] Serotonin neurons were recorded with micropipettes lowered at +1.0 mm interaural on midline. […]

SMILES | Early Discontinuation: AEs [1] | Early Discontinuation: All Reasons [1] | Early Discontinuation: Insufficient Response [1] | Incidence of TEAEs: Pts with at least 1 TEAE [1] | Selected TEAEs: anorexia [1] | Selected TEAEs: completed suicide* [1] [%] | Selected TEAEs: constipation [1] | Selected TEAEs: decreased appetite [1] | Selected TEAEs: diarrhea [1] | Selected TEAEs: dizziness [1] | Selected TEAEs: dry mouth [1] | Selected TEAEs: early morn awakening [1] | Selected TEAEs: ejaculation delayed [1] | Selected TEAEs: erectile dysfunction [1] [%] | Selected TEAEs: hypersomnia [1] [%] | Selected TEAEs: increased appetite [1] | Selected TEAEs: initial insomnia [1] | Selected TEAEs: insomnia [1] | Selected TEAEs: intentional self-injury [1] [%] | Selected TEAEs: lethargy [1] | further results
CC(NC(C)(C)C)C(=O)c1cccc(Cl)c1 (racemic) [bupropion, (±)-1-(3-chlorophenyl)-2-[(1,1-dimethylethyl)amino]-1-propanone] | 10 (7.5%) | 29 (21.6%) | 4 (3.0%) | 101 (75.4%) | 0% | 0 | 6 (4.5%) | 5 (3.7%) | 5 (3.7%) | 2 (1.5%) | 13 (9.7%) | 2 (1.5%) | 0% | 0 | 0 | 3 (2.2%) | 1 (0.7%) | 14 (10.4%) | 0 | 2 (1.5%) | Selected TEAEs: libido decreased [1]: 1 (0.7%); Selected TEAEs: libido increased [1]: 0%; Selected TEAEs: middle insomnia [1]: 3 (2.2%); Selected TEAEs: nausea [1]: 5 (3.7%); Selected TEAEs: orgasm abnormal [1]: 0%; Selected TEAEs: sedation [1]: 1 (0.7%); Selected TEAEs: sleep disorder [1]: 2 (1.5%); Selected TEAEs: somnolence [1]: 2 (1.5%); Selected TEAEs: suicidal ideation [1]: 1 (0.7%); Selected TEAEs: vomiting [1]: 0%; Selected TEAEs: weight decreased [1]: 4 (3.0%); Selected TEAEs: weight increased [1]: 0%; patients discontinued treatment early [1]: 21.6%; patients exhibited at least one Treatment Emergent Adverse Event (TEAE) [1]: 75.4%; ASEX Change in total scores (improvement = reduction in score) ([2]; Females): −1.6571; ASEX Change in total scores (improvement = reduction in score) ([2]; Males): −1.4222; spontaneous firing of DRN 5-HT neurons [3]: 1.54 Hz
CN(C)CCC[C@@]1(c2ccc(F)cc2)OCc2cc(C#N)ccc21 [escitalopram, 1-[3-(dimethyl-amino)propyl]-1-(p-fluorophenyl)-5-phthalancarbonitrile] | 5 (3.8%) | 24 (18.3%) | 0% | 86 (65.6%) | 1 (0.8%) | 0 | 3 (2.3%) | 2 (1.5%) | 6 (4.6%) | 3 (2.3%) | 11 (8.4%) | 1 (0.8%) | 2 (3.9%) | 0 | 0 | 1 (0.8%) | 0% | 5 (3.8%) | 0 | 0% | Selected TEAEs: libido decreased [1]: 3 (2.3%); Selected TEAEs: libido increased [1]: 0%; Selected TEAEs: middle insomnia [1]: 0%; Selected TEAEs: nausea [1]: 10 (7.6%); Selected TEAEs: orgasm abnormal [1]: 0%; Selected TEAEs: sedation [1]: 1 (0.8%); Selected TEAEs: sleep disorder [1]: 0%; Selected TEAEs: somnolence [1]: 4 (3.1%); Selected TEAEs: suicidal ideation [1]: 0%; Selected TEAEs: vomiting [1]: 2 (1.5%); Selected TEAEs: weight decreased [1]: 0%; Selected TEAEs: weight increased [1]: 3 (2.3%); patients discontinued treatment early [1]: 18.3%; patients exhibited at least one Treatment Emergent Adverse Event (TEAE) [1]: 65.6%; ASEX Change in total scores (improvement = reduction in score) ([2]; Females): −1.0000; ASEX Change in total scores (improvement = reduction in score) ([2]; Males): +0.1667; spontaneous firing of DRN 5-HT neurons [3]: 0.35 Hz
